Experimental data as given in patent US20260091026A1, “METHODS OF TREATING INFLAMMATORY DISEASES” (INTERLINE THERAPEUTICS, INC., priority 2023, published 2026).

Columns and labels:
[1] = test system: THP1-Dual cells, NF-κB pathway (SEAP); assay: THP-1 Dual cell SEAP assay (L18-MDP stimulated); assay type: cell-based; settings: Homo sapiens, 10 ng/mL L18-MDP, 20-24 h, SEAP readout, read-out: IFNγ THP1 IC50
Experimental: THP1-Dual™ cells (InvivoGen Cat #thpd-nfis) allow simultaneous assessment of the NF-κB pathway, by monitoring the activity of secreted embryonic alkaline phosphatase (SEAP) as well as the IRF pathway, by assessing the activity of a secreted luciferase (Lucia). Cells were cultured according to manufacturers' recommendations. For the assay, cell concentration was adjusted to 7.14×10^5 cells/mL in assay media (RPMI 1640, 2 mM L-Glutamine, 25 mM HEPES, 10% fetal bovine serum (heat-inactivated for 30 min at 56° C.), Pen-Strep (100 U/mL)) and 35 μL of cell suspension (˜25,000 cells) per well were added to a flat bottom 384-well plate (white opaque). Plate was centrifuged at 300 g for 2 min, compounds were added in serial dilution series according to the plate layout (volumes ˜500 nL-0.0152 nL) and plate was incubated at 37° C. in 5% CO2 for 30 min. Using assay media, a L18-MDP stock solution, that results in a final concentration of 10 ng/mL L18-MDP in each well when adding 15 μL to each well, was prepared. 15 μL of L18-MDP stock solution was added to each well, while 15 μL of assay media was added to the negative control wells. Plates were subsequently incubated at 37° C. in 5% CO2 overnight (20-24 h).
For the SEAP assay: without disturbing the cells at the bottom of the well, 15 μL supernatant was transferred to a clear 384-well flat bottom plate and 35 μL QUANTI-Blue Solution per well was added. Following a 2 h incubation at 37° C., the optical density (OD) was measured at 620-655 nm using a microplate reader (PheraStar FS microplate reader with protocol for OD 620-655 nm).
Values of media-only wells were subtracted and % inhibition for each compound concentration relative to the DMSO/L18-MDP-treated controls was calculated. Inhibition values+/−SD were fitted by non-linear regression using Prism software (GraphPad PRISM Software) to calculate IC50 values.

RIPK2 (KD)/XIAP (BIR2) = biological target: T1, RIPK2 (KD)/XIAP (BIR2) (Homo sapiens, UniProt O43353); assay: RIPK2-XIAP binding competition PPI assay (TR-FRET); settings: for Emax: 50 nM of GSK583 = -100% activity, read-out: PPI Amax; for IC50: GST-RIPK2 / His-XIAP (BIR2)-avi, 120 min at 23° C.
T1 construct: made in house; host or cells: baculovirus-infected Sf9 cells
T1 sequence (O43353 1-310): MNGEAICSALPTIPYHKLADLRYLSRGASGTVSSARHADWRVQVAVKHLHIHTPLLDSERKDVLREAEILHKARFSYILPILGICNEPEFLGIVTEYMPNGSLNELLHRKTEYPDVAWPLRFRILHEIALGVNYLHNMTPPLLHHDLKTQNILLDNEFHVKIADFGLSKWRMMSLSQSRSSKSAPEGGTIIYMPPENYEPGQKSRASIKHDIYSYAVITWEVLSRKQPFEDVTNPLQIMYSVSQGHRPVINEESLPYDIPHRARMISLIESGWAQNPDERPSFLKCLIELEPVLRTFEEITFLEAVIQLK
From the text: The ability of selected compounds of Formula (I) to inhibit the binding of an His-XIAP (BIR2)-avi fusion protein to a GST-RIPK2 fusion protein was quantified employing the TR-FRET-based competition assay as described in the following paragraphs.
Recombinant fusion protein of N-terminal Glutathione-S-Transferase (GST) and a fragment of human RIPK2 (amino acids 1-310 of accession number 043353), expressed in baculovirus infected Sf9 cells, purified via glutathione affinity chromatography, was used as GST-RIPK2 fusion protein. Recombinant fusion protein of N-terminal 6xHistidine (His), a fragment of human XIAP (amino acids 152-231 of accession number P98170), and C-terminal avi tag, expressed in baculovirus infected Sf9 cells, purified via Nickel NTA affinity chromatography, was used as the His-XIAP (BIR2)-avi fusion protein.
For the assay, a working solution of 1 nM GST-RIPK2, 25 nM His-XIAP (BIR2)-avi, 6 nM Anti-His-XL665 […] (Revvity Catalogue No. 61HISXLB), and 0.5 nM Anti-GST-Tb(Revvity Catalogue No. 61GSTTLB) in 25 mM Tris-HCl 7.5, 0.5 mM ethylene glycol-bis(2-aminoethylether)-N,N,N′,N′-tetraacetic acid (EGTA), 10 mM magnesium chloride (MgCl2), 2.5 mM dithiothreitol (DTT), 0.01% (w/v) bovine serum albumin (BSA), 0.005% (w/v) Pluronic F-127 (Sigma), 0.5 mM sodium ortho-vanadate, 5 mM-Glycerophosphate disodium salt hydrate (BGP) was prepared. 50 nL of a 100-fold concentrated solution of each test compound in DMSO was dispensed via acoustic dispensing into a white low volume 384-well microtiter plate (Perkin Elmer Catalogue No. 6008280). Subsequently, 5 μL of the assay working solution were added.
The resulting mixture was incubated 120 min at 23° C. Subsequently, the amount of complex formed by the GST-RIPK2, XIAP (BIR2)-avi, Anti-His-XL665, and Anti-GST-Tb was evaluated by measurement of the resonance energy transfer from the Tb-cryptate to the XL665. Therefore, the fluorescence emissions at 520 nm and 665 nm after excitation at 337 nm were measured in a TR-FRET reader, e.g. a Pherastar FS(BMG Labtechnologies, Offenburg, Germany) or an Envision (PerkinElmer). The ratio of the emissions at 665 nm and at 520 nm was taken as the measure of the amount of the complex. The data were normalized (assay reaction without inhibitor=0% activity, 50 nM of GSK583=−100% activity).

Compound	IC50 [1] [nM]	Emax (RIPK2 (KD)/XIAP (BIR2)) [%]	IC50 (RIPK2 (KD)/XIAP (BIR2)) [nM]
COc1cc2ncc(-c3cc(C(=O)N[C@@H]4C[C@H]4c4ccccc4)n(C)n3)n2cc1S(=O)(=O)C(C)(C)C (single isomer, unassigned) [Example 33, trans-(1R,2S) or (1S,2R) 3-(6-(tert-butylsulfonyl)-7-methoxyimidazo[1,2-a]pyridin-3-yl)-1-methyl-N-(2-phenylcyclopropyl)-1H-pyrazole-5-carboxamide]	> 2500	≥ 80	100 to 1000
COc1cc2ncc(-c3cc(C(=O)NCc4cn(C)cn4)n(C)n3)n2cc1S(=O)(=O)C(C)(C)C [Example 44, 3-(6-(tert-butylsulfonyl)-7-methoxyimidazo[1,2-a]pyridin-3-yl)-1-methyl-N-((1-methyl-1H-imidazol-4-yl)methyl)-1H-pyrazole-5-carboxamide]	> 2500	≥ 80	100 to 1000
COc1cc2ncc(-c3cc(C(=O)N[C@H](C)c4ccccn4)[nH]n3)n2cc1S(=O)(=O)C(C)(C)C [Example 146, (R)-3-(6-(tert-butylsulfonyl)-7-methoxyimidazo[1,2-a]pyridin-3-yl)-N-(1-(pyridin-2-yl)ethyl)-1H-pyrazole-5-carboxamide]	100 to 500	≥ 80	10 to 100
COc1cc2ncc(-c3cc(C(=O)NC4(c5ncccn5)CC4)n(C)n3)n2cc1S(=O)(=O)C(C)(C)C [Example 55, 3-(6-(tert-butylsulfonyl)-7-methoxyimidazo[1,2-a]pyridin-3-yl)-1-methyl-N-(1-(pyrimidin-2-yl)cyclopropyl)-1H-pyrazole-5-carboxamide]	> 2500	30 to 55	> 1000
COc1cc2ncc(-c3cc(C(=O)NCC4CCCCC4)n(C)n3)n2cc1S(=O)(=O)C(C)(C)C [Example 41, 3-(6-(tert-butylsulfonyl)-7-methoxyimidazo[1,2-a]pyridin-3-yl)-N-(cyclohexylmethyl)-1-methyl-1H-pyrazole-5-carboxamide]	> 2500	≥ 80	100 to 1000
COc1cc2ncc(-c3cc(C(=O)NCc4ncccc4C)n(C)n3)n2cc1S(=O)(=O)C(C)(C)C [Example 65, 3-(6-(tert-butylsulfonyl)-7-methoxyimidazo[1,2-a]pyridin-3-yl)-1-methyl-N-((3-methylpyridin-2-yl)methyl)-1H-pyrazole-5-carboxamide]	> 2500	≥ 80	100 to 1000
COc1cc2ncc(-c3cc(C(=O)N[C@H](C)c4ncccn4)n(C)n3)n2cc1S(=O)(=O)C(C)(C)C [Example 103, (R)-3-(6-(tert-butylsulfonyl)-7-methoxyimidazo[1,2-a]pyridin-3-yl)-1-methyl-N-(1-(pyrimidin-2-yl)ethyl)-1H-pyrazole-5-carboxamide]	100 to 500	≥ 80	10 to 100
C[C@@H](NC(=O)c1cc(-c2cnc3cc(OCCO)c(S(=O)(=O)C(C)(C)C)cn23)nn1C)c1ccccc1 [Example 32, (R)-3-(6-(tert-butylsulfonyl)-7-(2-hydroxyethoxy)imidazo[1,2-a]pyridin-3-yl)-1-methyl-N-(1-phenylethyl)-1H-pyrazole-5-carboxamide]	< 100	≥ 80	< 10
COc1cn2ncc(-c3cc(C(=O)N[C@H](C)c4ccccn4)n(C)n3)c2cc1S(=O)(=O)C(C)(C)C [Example 113, (R)-3-(5-(tert-butylsulfonyl)-6-methoxypyrazolo[1,5-a]pyridin-3-yl)-1-methyl-N-(1-(pyridin-2-yl)ethyl)-1H-pyrazole-5-carboxamide]	500 to 2500	≥ 80	100 to 1000
COc1cc2ncc(-c3cc(C(=O)NCc4ccccc4C#N)n(C)n3)n2cc1S(=O)(=O)C(C)(C)C [Example 83, 3-(6-(tert-butylsulfonyl)-7-methoxyimidazo[1,2-a]pyridin-3-yl)-N-(2-cyanobenzyl)-1-methyl-1H-pyrazole-5-carboxamide]	> 2500	≥ 80	100 to 1000
COc1cc2ncc(-c3cc(C(=O)N[C@H](C)c4ccccn4)n(C)n3)n2cc1S(=O)(=O)C(C)(C)C [Example 42, (R)-3-(6-(tert-butylsulfonyl)-7-methoxyimidazo[1,2-a]pyridin-3-yl)-1-methyl-N-(1-(pyridin-2-yl)ethyl)-1H-pyrazole-5-carboxamide]	100 to 500	≥ 80	10 to 100
C[C@@H](NC(=O)c1cc(-c2cnc3cc(OCCO)c(S(=O)(=O)C(C)(C)C)cn23)nn1C)c1nccs1 [Example 94, (R)-3-(6-(tert-butylsulfonyl)-7-(2-hydroxyethoxy)imidazo[1,2-a]pyridin-3-yl)-1-methyl-N-(1-(thiazol-2-yl)ethyl)-1H-pyrazole-5-carboxamide]	100 to 500	≥ 80	10 to 100
COc1cc2ncc(-c3cc(C(=O)N[C@H](C)c4ncc(F)cn4)n(C)n3)n2cc1S(=O)(=O)C(C)(C)C [Example 104, (R)-3-(6-(tert-butylsulfonyl)-7-methoxyimidazo[1,2-a]pyridin-3-yl)-N-(1-(5-fluoropyrimidin-2-yl)ethyl)-1-methyl-1H-pyrazole-5-carboxamide]	> 2500	≥ 80	> 1000
COc1cc2ncc(-c3cc(C(=O)Nc4ccccc4)n(C)n3)n2cc1S(=O)(=O)C(C)(C)C [Example 7, 3-(6-(tert-butylsulfonyl)-7-methoxyimidazo[1,2-a]pyridin-3-yl)-1-methyl-N-phenyl-1H-pyrazole-5-carboxamide]	> 2500	≥ 80	> 1000
COc1cc2ncc(-c3cc(C(=O)NCC4CC4)n(C)n3)n2cc1S(=O)(=O)C(C)(C)C [Example 38, 3-(6-(tert-butylsulfonyl)-7-methoxyimidazo[1,2-a]pyridin-3-yl)-N-(cyclopropylmethyl)-1-methyl-1H-pyrazole-5-carboxamide]	> 2500	30 to 55	> 1000
COc1cc2ncc(-c3cc(NC(=O)OCc4ccccc4)n(C)n3)n2cc1S(=O)(=O)C(C)(C)C [Example 149]	100 to 500	≥ 80	10 to 100
COc1cc2ncc(-c3cc(C(=O)N[C@H](C)C4CC4)n(C)n3)n2cc1S(=O)(=O)C(C)(C)C [Example 35, (R)-3-(6-(tert-butylsulfonyl)-7-methoxyimidazo[1,2-a]pyridin-3-yl)-N-(1-cyclopropylethyl)-1-methyl-1H-pyrazole-5-carboxamide]	> 2500	30 to 55	> 1000
COc1cc2ncc(-c3cc(C(=O)NCc4[nH]ncc4C)n(C)n3)n2cc1S(=O)(=O)C(C)(C)C [Example 43, 3-(6-(tert-butylsulfonyl)-7-methoxyimidazo[1,2-a]pyridin-3-yl)-1-methyl-N-((4-methyl-1H-pyrazol-5-yl)methyl)-1H-pyrazole-5-carboxamide]	> 2500	≥ 80	100 to 1000
